Earlier results as cited in patent US6358944B1, “Methods and compositions for treating generalized anxiety disorder” (Vela Pharmaceuticals, Inc., priority 1999, dated 2002).

CN(C)CCC=C1c2ccccc2C=Cc2ccccc21 [cyclobenzaprine, 3-(5H-Dibenzo[a,d]cyclohepten-5-ylidene)-N,N-dimethyl-1-propanamine]
other less common side effects (cyclobenzaprine treatment): nausea, tiredness, constipation, blurred vision, nervousness, confusion, abdominal pain and discomfort
principal side effects (cyclobenzaprine treatment): drowsiness, dry mouth or tongue, dizziness and bad taste
organ toxicity (cyclobenzaprine-treated patients at recommended doses): No indications of organ toxicity were found
toxic effects after overdose (three individuals who ingested between 260 to 900 mg): Toxic effects were reported
